Measured values taken from US20250206707A1, “NOVEL COMPOUND INDUCING EXPRESSION OF ANTI-AGING GENE KLOTHO” (KLOTHO SCIENCES CO., LTD., priority 2022, published 2025).
Values belong to the compound of their own block, whether it stands above or below them.

Key:
[1] = system: intracellular reactive oxygen species (ROS) in renal tubule epithelial cells (RPTECs); experiment: Analysis of intracellular reactive oxygen species (ROS) in RPTECs; format: cell-based, human; details: RPTEC cells, 2.5 µM compound, 6 h; FIG. 4
Method: Renal tubule epithelial cells (RPTECs) were treated with each KS compound of Example 1 to determine the changes in the amount of intracellular reactive oxygen species (ROS).
RPTEC cells in culture were incubated with 2.5 µM of each KS compound for 6 h. The amount of ROS present in the cells was measured by adding Reactive Oxygen Detection Reagents (Invitrogen) and incubating for 1 h. The change in fluorescence was measured using a spectrophotometer.
FIG. 4 is a graph showing the amount of ROS remaining in RPTEC cells. It was confirmed that the amount of ROS in the cells treated with KS103 and KS104 compounds was reduced by about 30% compared to the cells treated with solvent (DMSO) alone.

[2] = system: human retinal pigment epithelial cells (ARPE); experiment: Protective effect on retinal pigment epithelial cells against oxidative stress; format: cell-based; details: 2.5 μM compound, BSO 50 mM for 6 hours, Cyto X absorbance 450 nm, FIG. 7
Method: To determine the preventive or therapeutic effect of each KS compound of Example 1 on macular degeneration, the protection of retinal pigment epithelial cells against oxidative stress was determined.
First, human retinal pigment epithelial cells were tested using retinal pigment epithelial cells (ARPE) purchased from ATCC, USA. Equal numbers of 10,000 ARPE cells were added to each well, and after 18 hours of incubation, the cells were replaced with DMEM F-12 medium without serum (FBS).
Each KS compound was added at a concentration of 2.5 μM, and the cells were treated with buthionine sulfoximine (BSO) at a concentration of 50 mM for 6 hours to induce oxidative stress. To measure the viability of these cells, Cyto X (Cell viability assay kit) was added and the time-varying absorbance was measured at 450 nm.

[3] = system: Human retinal epithelial cells (ARPE); experiment: Cytotoxicity evaluation (EX-cytox absorbance); format: cell-based; details: different concentrations, 24 hours incubation, EX-cytox 1 hour, FIG. 3
Method: Human retinal epithelial cells (ARPE) in culture were treated with KS compounds of Example 1 at different concentrations and incubated for 24 hours, followed by a 1-hour reaction with EX-cytox from GOGEN, and the change in absorbance was measured.

klotho gene = experiment: Klotho gene mRNA expression by PCR in RPTECs; format: cell-based, human; details: 6 hours exposure, FIG. 2
Method: Human renal tubular epithelial cells (RPTECs) were treated with each KS compound of Example 1 at different concentrations, and mRNA was collected from the cells 6 hours later, and the mRNA expression of the klotho gene was confirmed by PCR. Renal Proximal Tubular Epithelial Cells (RPTECs) were purchased from Lonza and cultured at 37° C., 5% CO2 and used in the experiments. Each KS compound was added to the medium of the cells and after 6 hours of exposure, RNA was isolated from the cells and converted to cDNA using reverse transcriptase and amplified by PCR method to determine the expression level. As a control, DMSO was added instead of the compound.
The primers used in the experiment are listed below.
The expression levels of the bands in the gel photographs were quantified using Image J and plotted on a graph. In the gel picture, the upper band represents the secreted form of klotho, and the lower band represents the membrane form of klotho.

[4] = system: TXN, AKT1, NR4A3, NLRP3, FOXP3 genes; experiment: Expression changes in oxidative stress-related genes (NGS) in aged RPTEC cells; format: cell-based, human; details: 7th passage RPTEC, 2.5 μM, 6 hours, compared with 4-passage RPTEC, FIG. 5, FIG. 6
Method: 2.5 μM of each KS compound of Example 1 was added to relatively aged 7th passage (#7) renal tubular epithelial cells (RPTEC) cells, cultured for 6 hours, mRNA was collected, and total gene expression was analyzed using a next generation sequencer (NGS). To confirm changes in gene expression due to aging, through gene expression comparison with relatively young 4-passage (#4) RPTEC cells, genes with increased expression in young cells (TXN, AKT1, NR4A3, NLRP3, FOXP3 genes) were confirmed. The expression levels of these genes in young cells were compared to the expression change values caused by treatment with the compounds of Example 1 (senescent cells were treated with the compounds of Example 1, respectively).

[5] = Stability evaluation with human liver microsomes (MS/MS analysis); format: in vitro ADME; details: human microsomes 0.5 mg/ml, 1 μM compound, 30 min, 37° C., with NADPH; tolbutamide as control; FIG. 1
Method: Each KS compound in Example 1 was dissolved in 10 mM DMSO, and tolbutamide, used as a standard, was dissolved in methanol at a concentration of 10 mM.
In a glass test tube (13×100 mm), 0.1 M KH2PO4 (147.5 μl), 0.1 M MgCl2 (25 μl), and 50 μl of human […] microsomes (mixed-gender pool) at a concentration of 0.5 mg/ml purchased from Corning Life Science and each KS compound solution were mixed to a final 1 μM of each KS compound solution, pre-incubated for 3 min in a shaking water bath (37° C., 40 rpm), and then incubated for 30 min in the presence or absence of 10 mM NADPH, 25 μL.
Aliquots of 50 μl were taken before the reaction and after the reaction, and then the reaction was stopped by adding […] of acetonitrile and vortexed for 1 min. The mixture was centrifuged (4,000 rpm, 4° C.) for 20 minutes, and each supernatant was transferred to a new glass test tube and dried for 2 hours using a centrifugal concentrator. After ensuring complete drying, 200 μl of 40% acetonitrile was added to each glass test tube and resuspended by vortexing for 1 minute. The resuspension solution was centrifuged for 10 minutes (4,000 rpm, 4° C.) and 150 μl of the supernatant was taken for HPLC-UV analysis. The Agilent 1200 series was used for HPLC-UV analysis and the Agilent 6410 was used for MS/MS analysis. The conditions used for the analysis were as follows: […]

Structure (SMILES): Fc1ccc2nc(Nc3ccc(F)c(F)c3)oc2c1 [KS103, N-(3,4-difluorophenyl)-6-fluorobenzo[d]oxazol-2-amine]
reduction of the amount of ROS in the cells compared to cells treated with solvent (DMSO) alone [1]: about 30%
protection against oxidative stress-induced cell death [2]: inhibited oxidative stress-induced cell death

microsomal stability [5]: best microsomal stability
Structure (SMILES): Fc1ccc(Nc2nc3cc(F)c(F)cc3o2)cc1F [KS104, N-(3,4-difluorophenyl)-5,6-difluorobenzo[d]oxazol-2-amine]
cytotoxicity [3]: lowest cytotoxicity
reduction of the amount of ROS in the cells compared to cells treated with solvent (DMSO) alone [1]: about 30%
ability to express the klotho gene compared to KS101 as well as other fluorine-bound compounds (klotho gene): more than doubled
expression effect on the klotho gene (mRNA, sum of secreted and membrane form bands) (klotho gene; different concentrations, Image J quantification): best expression effect
expression of oxidative stress-related genes in aged cells versus young cells [4]: induced to a greater extent than in young cells
protection against oxidative stress-induced cell death [2]: inhibited oxidative stress-induced cell death
